Blank lines part the entries; values can stand above or below the compound they belong to.
Legend:
Type in all cases: biochemical, mouse (129G1X)
[1] = system: monoclonal receptor (antibody) 27A6 (hybridoma 27A6, ATCC HB 10621), IgG induced by hapten Compound 5a; assay: Hydrolysis of benzoate ester Compound 3 catalyzed by monoclonal receptor 27A6 (HPLC assay, Michaelis-Menten kinetics)
Protocol: That monoclonal receptor is also referred to as receptor or antibody 27A6.
Purified monoclonal antibodies were dialyzed against EPPS buffer (I mM, pH 8.0, 100 mM NaCl) or CHES buffer (1 mM, pH 8.0, 100 mM NaCl). Its protein concentration was determined by the BCA method (Pierce). Assays were performed by HPLC (reverse-phase column, C18, VYDAC 201Tp54) with C3 CN/H2 O (0.1 percent TFA) on an isocratic program of 10/90. An internal standard of o-acetamidophenol was used to calculate the amount of product formed [4-(carboxybutyramido)phenol].
Reactions contained 5 percent cosolvent dioxane, and the temperature was maintained at 37°±0.1°degrees C. Initial linear rates were measured at<5 percent hydrolysis of the total substrate. […] Kinetic parameters Vmax Km were determined by nonlinear least-squares fitting of the initial rate vs. substrate concentration to a hyperbolic curve described by the Michaelis-Menten equation.

[2] = system: monoclonal antibody 30C6 (hybridoma 30C6, ATCC HB 10341), IgG induced by haptenic ligand Compound 1a; assay: Hydrolysis of benzoate ester Compound 3 catalyzed by monoclonal antibody 30C6 (HPLC assay, Michaelis-Menten kinetics)
Protocol: Monoclonal antibodies at a concentration of 20 μM were initially screened (phosphate buffer 50 mM, pH 7.5, 100 mM NaCl, 37° degrees C.) against benzoate ester reactant ligand Compound 3, ([…]) for the production of 5-[[4-(hydroxy)phenyl]aming]-5-oxo-pentanoic acid, Compound 4. [Analysis was performed via HPLC on an RP-C18 column eluting with water: acetonitrile (op:10) at a flow of 1 ml/min with UV detector set to 254 nm. The hydrolysis product, Compound 4 (FIG. 1; retention time 7 minutes) was collected (recovered) an found to be identical by RP-HPLC coinjection and mass spectral analysis with an authentic sample.]
The pH dependence of the hydrolysis of substrate Compound 3 was examined in the presence of monoclonal antibodies 30C6 (20 μM) between pH 6.0 and 7.2 (Bis-tris) and 7.2-8.0 (phosphate), both at 50 mM buffer and 100 mM NaCl, 37° degrees C. (FIG. 2).

[3] = system: the three catalytic monoclonal antibodies obtained to hapten Compound 5a; assay: HPLC screen of hydrolysis of Compound 3 by catalytic antibodies, inhibition by free hapten; details: 50 μM inhibitor; antibody 20 μM, Compound 3 500 μM, phosphate 50 mM, pH 7.5, 100 mM NaCl, 37 degrees C
Protocol: Antibodies at a concentration of 20μM were initially screened (phosphate buffer, 50 mM, pH 7.5, 100 mM NaCl, 37° degrees C.) via an HPLC assay against benzoate ester Compound 3, (500 μM) for the production of 5-[(4-hydroxyphenyl)aming]-5-oxopentanoic acid, Compound 4.

[4] = system: monoclonal receptor (antibody) 27A6 (hybridoma 27A6, ATCC HB 10621), IgG induced by hapten Compound 5a; assay: Chemical modification of antibody 27A6, then assay of catalytic (esterolytic) activity by HPLC
Protocol: The esterolytic activity of monoclonal receptor 27A6 was unaffected by treatment with diethyl pyrocarbonate or maleic anhydride in fifty-fold molar excess to protein.
(a) Phenylglyoxal; a 50 μl aliquot of a phenylglyoxal solution (6 mM), (125 mM NaHCO3, pH 7.5) was added to buffer 195 μl (125 mM, pH 7.5 NaHCO3), containing antibody (20 μM). The mixture was vortexed and left to stand for one hour at room temperature. This reaction mixture was then transferred to a microdialyzer (Pierce) and dialyzed with 125 mM, pH 7.5 NaHCO3 with a flow through of approximately 150 ml/hour for two hours. The microdialyzer was then flushed with 4×60 ml portions of pH 8.4, 50 mM CHES, 100 mM NaCl and left to stand in this buffer overnight (about 15-18 hours). The microdialyzer was again flushed 3×50 ml portions of pH 8.4, 50 mM CHES, 100 mM NaCl the next morning. Samples were removed, protein concentrations recalculated (BCA) and assays run for catalytic activity (HPLC) or binding (ELISA). A similar procedure was used with hapten present (200 μM).
(b) Maleic anhydride; a […] aliquot of a maleic anhydride solution (0.06 M, dioxane) was added to 299 μl of 20 mM, pH 8.9 borate, 100 mM NaCl containing 20 μM of antibody. The solution was vortexed and left to stand at room temperature for one hour. This reaction mixture was then transferred to a microdialyzer and dialyzed as described above with 50 mM CHES, pH 8.4, 100 mM NaCl. Samples were removed, protein concentrations calculated (BCA), and assays run for catalytic activity or binding.
(c) Diethyl pyrocarbonate; 10 μl of a 0.6 M diethylpyrocarbonate solution in ethanol was diluted into 1 ml of sodium acetate (NaOAc) (150 mM, pH 6, 100 mM NaCl). Five microliters of that solution were added to 299 μl of NaOAc (150 mM, pH 6.0, 100 mM NaCl) containing 20 µM of antibody. The mixture was vortexed and left to stand at 4° degrees C. overnight (about 15-18 hours). This reaction mixture was then transferred to a microdialyzer and dialyzed as described above with CHES (50 mM, pH 8.4, 100 mM NaCl). Samples were removed, protein concentrations determined (BCA) and assays performed for catalytic activity and binding.

[5] = hydrolysis of Compound 3, 50 mM phosphate, 100 mM NaCl, pH 7.2, 37 degrees C, antibody 20 μM
[6] = treatment with reagent in fifty-fold molar excess to protein

Kcat^app ([1]; hydrolysis of Compound 3, 50 mM EPPS, 100 mM NaCl, pH 8.5, 37 degrees C): 0.00017 ± 3.3e-05 s⁻¹ | Km [2, 5]: 1120 ± 50 µM
SMILES: O=C(O)CCCC(=O)Nc1ccc(OC(=O)c2ccccc2)cc1 [Compound 3]
Kcat^app [2, 5]: 5±0.2×10^-3 min^-1 | ratio of kcat/ko (rate acceleration by the antibody over hydrolysis in water) ([2]; pH independent antibody-catalyzed rate vs hydrolysis of Compound 3 in water): over a million fold

SMILES: Nc1ccc(CC(O)c2ccccc2C(=O)O)cc1 (stereo not shown) [Compound 5b]
Ki ([1]; competitive inhibitor, substrate Compound 3, read-out: K (competitive inhibition of the antibody-catalyzed hydrolysis of Compound 3)): 6 ± 2 µM | inhibition of catalysis [3]: completely inhibited

esterolytic activity after treatment [4, 6]: unaffected
SMILES: CCOC(=O)OC(=O)OCC [diethyl pyrocarbonate]

esterolytic activity after treatment [4, 6]: unaffected
SMILES: O=C1C=CC(=O)O1 [maleic anhydride]

loss of catalytic activity in the presence of inhibitor Compound 5b ([4]; reagent in fifty-fold molar excess, Compound 5b five-fold molar excess to protein): 35% | loss of catalytic activity [4, 6]: 75%
SMILES: O=CC(=O)c1ccccc1 [phenylglyoxal]
